# pIC50: −log10 of the molar value. Like-named read-outs stand apart in the source and are kept apart here.
# Experiments:
# Type in all cases: biochemical
# [1] = molecular target: PDE1C (Homo sapiens (Human), UniProt Q14123); assay: biochemical
# From the text: (§1) Table 1 lists the IC50 value for inhibition of PDE1 by the compounds of the invention. […] PDE1 assays are described in the Experimental Section.
# [2] = molecular target: PDE1A (Homo sapiens (Human), UniProt P54750); assay: biochemical
# From the text: as §1
# [3] = molecular target: PDE1B (Homo sapiens (Human), UniProt Q01064); assay: PDE1 inhibition assay (PDE1B); conditions: 15 nM tritium labelled cAMP, 1 hr at room temperature, SPA beads; for pIC50: read-out: PDE1B, IC50; for IC50: PDE1B, IC50 (nM)
# From the text: as §1
# [4] = 15 nM tritium labelled cAMP, 1 hr at room temperature, SPA beads
# Sequence of PDE1B (Q01064 whole entry): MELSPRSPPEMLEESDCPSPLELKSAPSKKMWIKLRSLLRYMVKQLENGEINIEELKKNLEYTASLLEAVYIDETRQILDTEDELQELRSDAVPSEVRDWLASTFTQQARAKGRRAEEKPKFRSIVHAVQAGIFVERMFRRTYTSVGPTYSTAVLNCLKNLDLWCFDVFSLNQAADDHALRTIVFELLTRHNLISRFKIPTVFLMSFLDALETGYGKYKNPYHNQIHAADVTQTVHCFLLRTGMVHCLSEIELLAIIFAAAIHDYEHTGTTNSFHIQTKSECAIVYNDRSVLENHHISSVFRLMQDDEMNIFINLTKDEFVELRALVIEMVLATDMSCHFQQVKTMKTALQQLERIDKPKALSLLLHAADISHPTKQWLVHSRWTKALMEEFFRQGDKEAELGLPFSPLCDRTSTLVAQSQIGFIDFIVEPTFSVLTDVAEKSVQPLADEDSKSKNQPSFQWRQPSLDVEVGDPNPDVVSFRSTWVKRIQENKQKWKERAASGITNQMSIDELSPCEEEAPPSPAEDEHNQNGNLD
# Sequence of PDE1C (Q14123 whole entry): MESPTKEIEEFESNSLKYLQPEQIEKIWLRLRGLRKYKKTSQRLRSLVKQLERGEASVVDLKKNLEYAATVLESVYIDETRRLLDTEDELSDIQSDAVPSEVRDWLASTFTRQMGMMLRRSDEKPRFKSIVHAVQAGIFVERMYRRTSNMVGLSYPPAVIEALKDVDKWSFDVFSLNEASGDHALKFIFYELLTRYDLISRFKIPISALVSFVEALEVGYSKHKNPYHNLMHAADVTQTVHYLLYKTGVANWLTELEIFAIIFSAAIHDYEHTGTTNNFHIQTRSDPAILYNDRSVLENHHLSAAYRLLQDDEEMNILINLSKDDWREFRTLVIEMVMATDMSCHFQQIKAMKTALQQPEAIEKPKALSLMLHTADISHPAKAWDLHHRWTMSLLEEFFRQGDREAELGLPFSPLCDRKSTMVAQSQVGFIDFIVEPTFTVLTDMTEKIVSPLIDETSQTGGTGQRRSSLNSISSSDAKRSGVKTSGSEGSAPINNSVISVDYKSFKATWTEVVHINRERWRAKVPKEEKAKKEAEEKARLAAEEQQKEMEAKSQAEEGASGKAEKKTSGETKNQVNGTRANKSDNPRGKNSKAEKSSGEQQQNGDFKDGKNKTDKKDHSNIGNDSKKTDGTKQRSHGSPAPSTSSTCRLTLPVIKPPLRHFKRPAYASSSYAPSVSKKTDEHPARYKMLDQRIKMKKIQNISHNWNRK
# Sequence of PDE1A (P54750 whole entry): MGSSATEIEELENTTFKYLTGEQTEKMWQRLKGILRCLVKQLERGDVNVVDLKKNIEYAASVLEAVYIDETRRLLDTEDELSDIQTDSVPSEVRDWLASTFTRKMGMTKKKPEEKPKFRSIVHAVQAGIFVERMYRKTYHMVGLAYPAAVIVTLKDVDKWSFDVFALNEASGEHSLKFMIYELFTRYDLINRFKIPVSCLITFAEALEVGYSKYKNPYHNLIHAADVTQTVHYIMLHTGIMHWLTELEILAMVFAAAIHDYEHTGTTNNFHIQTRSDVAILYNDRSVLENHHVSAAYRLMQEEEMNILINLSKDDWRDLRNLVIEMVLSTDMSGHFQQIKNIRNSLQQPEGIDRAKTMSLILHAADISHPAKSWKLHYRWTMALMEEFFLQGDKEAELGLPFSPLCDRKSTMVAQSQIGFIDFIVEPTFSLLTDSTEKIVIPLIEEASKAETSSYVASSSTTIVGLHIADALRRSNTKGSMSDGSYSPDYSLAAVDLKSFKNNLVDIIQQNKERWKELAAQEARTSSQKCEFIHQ
Structure (SMILES),"pIC50 [1, 4]","pIC50 [2, 4]",pIC50 [3],pIC50 [2],IC50 [3] [nM],pIC50 [1]
"CCOc1ncccc1-c1cc(NCc2cccn(C)c2=O)c2c(n1)c(C)nn2C(C)C [Example 108, 3-[[[5-(2-ethoxy-3-pyridyl)-1-isopropyl-3-methyl-pyrazolo[4,3-b]pyridin-7-yl]amino]methyl]-1-methyl-pyridin-2-one]",7.92,8.55,9.44,–,–,–
"Cc1nn(C(C)C)c2c(NCc3cnn(C)c3)cc(-c3ccccc3)nc12 [Example 64, 1-isopropyl-3-methyl-N-[(1-methylpyrazol-4-yl)methyl]-5-phenyl-pyrazolo[4,3-b]pyridin-7-amine]",7.33,7.28,7.92,–,–,–
"CCOc1ncccc1-c1cc(SCc2cnn(C)c2)c2c(n1)c(C)nn2C(C)C [Example 164, 5-(2-ethoxy-3-pyridyl)-1-isopropyl-3-methyl-7-[(1-methylpyrazol-4-yl)methylsulfanyl]pyrazolo[4,3-b]pyridine]",7.60,–,–,8.17,1.6,–
"CCOc1ncccc1-c1cc(NCc2cc(C)on2)c2c(n1)c(C)nn2C(C)C [Example 3, 5-(2-ethoxy-3-pyridyl)-1-isopropyl-3-methyl-N-[(5-methylisoxazol-3-yl)methyl]pyrazolo[4,3-b]pyridin-7-amine]",8.52,9.10,9.96,–,–,–
"CCOc1ncccc1-c1cc(NCc2nccs2)c2c(cnn2C(C)C)n1 [Example 20, 5-(2-ethoxy-3-pyridyl)-1-isopropyl-N-(thiazol-2-ylmethyl)pyrazolo[4,3-b]pyridin-7-amine]",6.22,6.28,7.43,–,–,–
"CCOc1ncccc1-c1cc(NCc2coc(C)n2)c2c(n1)c(C)nn2C(C)C [Example 37, 5-(2-ethoxy-3-pyridyl)-1-isopropyl-3-methyl-N-[(2-methyloxazol-4-yl)methyl]pyrazolo[4,3-b]pyridin-7-amine]",7.74,8.23,9.37,–,–,–
"COc1ncccc1CNc1cc(-c2cccnc2OC2CC2)nc2c(C)nn(C(C)C)c12 [Example 174, 5-(2-cyclopropoxypyridin-3-yl)-1-isopropyl-N-((2-methoxypyridin-3-yl)methyl)-3-methyl-1H-pyrazolo[4,3-b]pyridin-7-amine]",7.28,7.74,8.82,–,–,–
"CCCOc1ncccc1-c1cc(NCc2ncn(C)n2)c2c(n1)c(C)nn2C(C)C [Example 145, 1-isopropyl-3-methyl-N-[(1-methyl-1,2,4-triazol-3-yl)methyl]-5-(2-propoxy-3-pyridyl)pyrazolo[4,3-b]pyridin-7-amine]",8.92,9.39,10.02,–,–,–
"CCOc1ncccc1-c1cc(NCc2cc(C)n(C)n2)c2c(n1)c(C)nn2C(C)C [Example 54, N-[(1,5-dimethylpyrazol-3-yl)methyl]-5-(2-ethoxy-3-pyridyl)-1-isopropyl-3-methyl-pyrazolo[4,3-b]pyridin-7-amine]",8.34,9.41,9.74,–,–,–
"CCOc1ncccc1-c1cc(NCc2cn(C)nn2)c2c(n1)c(C)nn2C(C)C [Example 6, 5-(2-ethoxy-3-pyridyl)-1-isopropyl-3-methyl-N-[(1-methyltriazol-4-yl)methyl]pyrazolo[4,3-b]pyridin-7-amine]",8.25,8.32,9.66,–,–,–
"CCOc1ncccc1-c1cc(NCc2cc(OC)ccn2)c2c(n1)c(C)nn2C(C)C [Example 81, 5-(2-ethoxy-3-pyridyl)-1-isopropyl-N-[(4-methoxy-2-pyridyl)methyl]-3-methyl-pyrazolo[4,3-b]pyridin-7-amine]",8.33,9.00,9.59,–,–,–
"Cc1nocc1-c1cc(NCc2cnn(C)c2)c2c(n1)c(C)nn2C(C)C [Example 194, 1-isopropyl-3-methyl-5-(3-methylisoxazol-4-yl)-N-[(1-methylpyrazol-4-yl)methyl]pyrazolo[4,3-b]pyridin-7-amine]",7.68,7.02,7.64,–,–,–
"Cc1nn(C(C)C)c2c(NCc3cnn(C)c3)cc(-c3cnn(C)c3C)nc12 [Example 66, 5-(1,5-dimethylpyrazol-4-yl)-1-isopropyl-3-methyl-N-[(1-methylpyrazol-4-yl)methyl]pyrazolo[4,3-b]pyridin-7-amine]",6.66,6.68,7.23,–,–,–
"CCOc1ncccc1-c1cc(NCc2cnccc2OC)c2c(n1)c(C)nn2C(C)C [Example 92, 5-(2-ethoxy-3-pyridyl)-1-isopropyl-N-[(4-methoxy-3-pyridyl)methyl]-3-methyl-pyrazolo[4,3-b]pyridin-7-amine]",6.96,7.33,8.57,–,–,–
"[2H]C([2H])([2H])COc1ncccc1-c1cc(NCc2cccnc2OC)c2c(n1)c(C)nn2C(C)C [Example 182, 5-(2-(ethoxy-2,2,2-d3)pyridin-3-yl)-1-isopropyl-N-((2-methoxypyridin-3-yl)methyl)-3-methyl-1H-pyrazolo[4,3-b]pyridin-7-amine]",–,–,–,7.62,1.1,7.21
"CCOc1ncccc1-c1cc(NCc2ccc(C(F)F)nc2)c2c(n1)c(C)nn2C(C)C [Example 117, N-[[6-(difluoromethyl)-3-pyridyl]methyl]-5-(2-ethoxy-3-pyridyl)-1-isopropyl-3-methyl-pyrazolo[4,3-b]pyridin-7-amine]",7.59,7.74,8.64,–,–,–
"CCOc1ncccc1-c1cc(CCc2ncn(C)n2)c2c(n1)c(C)nn2C(C)C [Example 160, 5-(2-ethoxy-3-pyridyl)-1-isopropyl-3-methyl-7-[2-(1-methyl-1,2,4-triazol-3-yl)ethyl]pyrazolo[4,3-b]pyridine]",7.25,7.64,8.41,–,–,–
"Cc1csc(-c2cc(NCc3cnn(C)c3)c3c(n2)c(C)nn3C(C)C)n1 [Example 149, 1-isopropyl-3-methyl-N-[(1-methylpyrazol-4-yl)methyl]-5-(4-methylthiazol-2-yl)pyrazolo[4,3-b]pyridin-7-amine]",7.16,7.54,8.62,–,–,–
"CCOc1ncccc1-c1cc(NCc2ccnc(OC)c2)c2c(n1)c(C)nn2C(C)C [Example 104, 5-(2-ethoxy-3-pyridyl)-1-isopropyl-N-[(2-methoxy-4-pyridyl)methyl]-3-methyl-pyrazolo[4,3-b]pyridin-7-amine]",8.20,8.66,9.80,–,–,–
"CCOc1ncccc1-c1cc(NCc2ccncc2)c2c(cnn2C(C)C)n1 [Example 22, 5-(2-ethoxy-3-pyridyl)-1-isopropyl-N-(4-pyridylmethyl)pyrazolo[4,3-b]pyridin-7-amine]",6.37,6.60,7.30,–,–,–
"CCNc1ncccc1-c1cc(NCc2cnn(C)c2)c2c(n1)c(C)nn2C(C)C [Example 79, 5-(2-(ethylamino)pyridin-3-yl)-1-isopropyl-3-methyl-N-((1-methyl-1H-pyrazol-4-yl)methyl)-1H-pyrazolo[4,3-b]pyridin-7-amine]",6.59,6.64,7.51,–,–,–
"CCOc1ncccc1-c1cc(NCc2cccc(C(F)(F)F)n2)c2c(n1)c(C)nn2C(C)C [Example 107, 5-(2-ethoxy-3-pyridyl)-1-isopropyl-3-methyl-N-[[6-(trifluoromethyl)-2-pyridyl]methyl]pyrazolo[4,3-b]pyridin-7-amine]",6.77,6.96,8.25,–,–,–
